Results from patent US8192999B2, “Method for the identification of macromolecule targets of analytes” (priority 2005, dated 2012).

Tested on: E. coli proteins
Assay: Non-specific binding of MTX to proteins of E. coli cell lysate (HPLC co-fractionation)
Conditions: MTX-spiked E. coli extract; FIG. 9

**Q.** Which “non-specific binding of the drug to E. coli proteins” value does the source give for `CN(Cc1cnc2nc(N)nc(N)c2n1)c1ccc(C(=O)N[C@@H](CCC(=O)O)C(=O)O)cc1` [MTX, methotrexate] here?
**A.** no non-specific binding of the drug to any E. coli proteins was detected
